These results are taken from article PMC10133251, “An intrinsic purine metabolite AICAR blocks lung tumour growth by targeting oncoprotein mucin 1” (British Journal of Cancer, 2023).

The target of one data set is T1, MUC1-CT (Homo sapiens, UniProt P15941).
T1 construct: endogenous C-terminal beta subunit (MUC1-CT) of the cleaved MUC1 precursor in intact H1975 cells; detected by western blot with anti-MUC1-CT
T1 sequence (P15941 1098-1255 limits assumed): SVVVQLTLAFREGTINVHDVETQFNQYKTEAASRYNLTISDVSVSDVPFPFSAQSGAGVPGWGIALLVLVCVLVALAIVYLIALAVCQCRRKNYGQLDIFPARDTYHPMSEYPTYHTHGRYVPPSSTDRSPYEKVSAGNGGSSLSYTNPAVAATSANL
Nature of the data set: cellular thermal shift assay, western blot. It counts as cell-based. Conditions: intact H1975 cells, 1 mM AICAR for 15 min, heated 3 min at 37-55 °C; stabilisation shown as curve only, no Tm; intracellular phosphorylation to ZMP possible.

Another data set relates to PC9. Nature of the data set: cells. Conditions: Homo sapiens, PC-9; viability, 72 h. On the set-up: species or system panel of lung tumour and stromal cell lines; CellTiter-Glo luminescent cell viability, 2D monolayer, 3000 cells per well in 96-well plate, vehicle-normalised. How it is done:
(§1) For 2D monolayer cell cultures, 3000 cells were plated into each well of a white 96-well plate in three replicates. After attachment, the cells were treated with AICAR, VX-509, osimertinib, and ABT-702 alone or in combinations for 72 h. The cell viability was measured at the treatment endpoint using the CellTiter-Glo® luminescent cell viability assay kit (Promega, Cat #G7570) according to the manufacturer’s instructions. The luminescent signal was recorded as relative light units (RLU). For 3D organoid cultures, the cell viability was measured using CellTiter-Glo 3D® Cell Viability Assay (Promega, Cat #G9681) according to the manufacturer’s protocol. The relative cell viability treated with the vehicle was normalised as 1. To explore the effects of AICAR treatment on lung cancer cell lines, we performed a cell viability assay using a panel of lung cancer cell lines based on the status of EGFR mutations (Table S1). […] To understand whether AICAR’s effects are dependent upon EGFR mutations, we tested drug response in another panel of lung cancer cells with wild-type EGFR, including H358, H23, H441, A549, and H69 (Fig. 1b). The average EC50 of tested EGFR wild-type cell lines (1.31 ± 0.18 mM) was higher than that of EGFR-mutant cell lines upon AICAR treatment (p < 0.05). To examine if there was any toxicity in stromal cells, we measured AICAR treatment response in a panel of primary lung stromal cell lines, including CCD-13Lu (fibroblasts), HULEC-5A (endothelial cells), and NR8383 (macrophages). […] 3000 cells (H3255, PC9-ER, HCC827, H1650, PC9, and H1975) were plated in a 96-well plate and treated with increasing doses of AICAR (0–10 mM). The cell viability was measured three days after treatment. Values were normalised to a vehicle-treated control group. N = 3 replicates. b Cell viability assay of AICAR in EGFR wild-type lung adenocarcinoma and small cell lung cancer cell lines. 3000 cells (A549, H23, H69, H358, and H441) were plated in a 96-well plate and treated with increasing doses of AICAR (0–10 mM). The cell viability was measured three days after treatment. Values were normalised to a vehicle-treated control group. N = 3 replicates. c Cell viability assay of AICAR in multiple types of primary lung stromal cells. 3000 cells (macrophages NR8383, endothelial cells HULEC-5A, and fibroblasts CCD-13Lu) were plated in a 96-well plate and treated with increasing doses of AICAR (0–10 mM). The cell viability was measured three days after treatment. Values were normalised to a vehicle-treated control group. N = 3 replicates. d Quantification of EC50 in EGFR mutant, wild-type, and non-malignant stromal lung cells. N = 3 replicates. e Flow cytometry analysis for time-dependent apoptosis in EGFR-mutant H1975 cells treated with AICAR. H1975 cells were plated in a 24-well plate and treated with AICAR (1 mM) for 0, 4, 7, and 16 h. After treatment, the apoptotic cells were quantified by flow cytometry analysis of cells stained with Annexin-V-APC and 7AAD. N = 4 replicates. f–h Flow cytometry analysis for apoptosis in multiple cell lines treated with AICAR. EGFR-mutant PC9 (f) and EGFR wild-type A549 (g) and H23 (h) cells were plated in a 24-well plate and treated with AICAR (1 mM) and vehicle control for 7 h. After treatment, the apoptotic cells were quantified by flow cytometry analysis of cells stained with Annexin-V-APC and 7AAD. N = 4 replicates. i, j Western blotting and relative quantification for expression levels of γ-H2AX (S139), H2AX, p-p53 (S33), p53, and […]

The test system of the next data set is H358. Nature of the data set: cells. The arrangement: species or system panel of lung tumour and stromal cell lines; CellTiter-Glo luminescent cell viability, 2D monolayer, 3000 cells per well in 96-well plate, vehicle-normalised. The note with it: Homo sapiens, NCI-H358; viability, 72 h. How it is done: as §1
Another data set concerns H3255. Nature of the data set: cells. The note with it: Homo sapiens, NCI-H3255; viability, 72 h. On the set-up: species or system panel of lung tumour and stromal cell lines; CellTiter-Glo luminescent cell viability, 2D monolayer, 3000 cells per well in 96-well plate, vehicle-normalised. How it is done:
as §1

The next data set relates to H1975. Nature of the data set: cells. On the set-up: species or system panel of lung tumour and stromal cell lines; CellTiter-Glo luminescent cell viability, 2D monolayer, 3000 cells per well in 96-well plate, vehicle-normalised. The note with it: Homo sapiens, NCI-H1975; viability, 72 h. How it is done:
as §1

A further data set concerns H1650. Nature of the data set: cells. On the set-up: species or system panel of lung tumour and stromal cell lines; CellTiter-Glo luminescent cell viability, 2D monolayer, 3000 cells per well in 96-well plate, vehicle-normalised. The note with it: Homo sapiens, NCI-H1650; viability, 72 h. How it is done: as §1
In a further data set the test system is H23. Nature of the data set: cells. On the set-up: species or system panel of lung tumour and stromal cell lines; CellTiter-Glo luminescent cell viability, 2D monolayer, 3000 cells per well in 96-well plate, vehicle-normalised. The note with it: Homo sapiens, NCI-H23; viability, 72 h. How it is done: as §1
For a further data set, the system named is A549. Nature of the data set: cells. On the set-up: species or system panel of lung tumour and stromal cell lines; CellTiter-Glo luminescent cell viability, 2D monolayer, 3000 cells per well in 96-well plate, vehicle-normalised. Conditions: Homo sapiens, A549; viability, 72 h. How it is done: as §1
A further data set concerns PC9-ER. Nature of the data set: cells. Conditions: Homo sapiens, PC-9/ER; viability, 72 h. The arrangement: species or system panel of lung tumour and stromal cell lines; CellTiter-Glo luminescent cell viability, 2D monolayer, 3000 cells per well in 96-well plate, vehicle-normalised. How it is done:
as §1

The test system of another data set is H441. Nature of the data set: cells. The note with it: Homo sapiens, NCI-H441; viability, 72 h. On the set-up: species or system panel of lung tumour and stromal cell lines; CellTiter-Glo luminescent cell viability, 2D monolayer, 3000 cells per well in 96-well plate, vehicle-normalised. How it is done:
as §1

The test system of the next data set is HCC827. Nature of the data set: cells. On the set-up: species or system panel of lung tumour and stromal cell lines; CellTiter-Glo luminescent cell viability, 2D monolayer, 3000 cells per well in 96-well plate, vehicle-normalised. Conditions: Homo sapiens, HCC827; viability, 72 h. How it is done:
as §1

The test system of another data set is H69. Nature of the data set: cells. Conditions: Homo sapiens, NCI-H69; viability, 72 h. On the set-up: species or system panel of lung tumour and stromal cell lines; CellTiter-Glo luminescent cell viability, 2D monolayer, 3000 cells per well in 96-well plate, vehicle-normalised. How it is done:
as §1

The next data set relates to NR8383. Nature of the data set: in vitro. The arrangement: species or system panel of lung tumour and stromal cell lines; CellTiter-Glo luminescent cell viability, 2D monolayer, 3000 cells per well in 96-well plate, vehicle-normalised. Conditions: viability, 72 h; given as EC50; inhibitor. How it is done:
(§2) For 2D monolayer cell cultures, 3000 cells were plated into each well of a white 96-well plate in three replicates. After attachment, the cells were treated with AICAR, VX-509, osimertinib, and ABT-702 alone or in combinations for 72 h. The cell viability was measured at the treatment endpoint using the CellTiter-Glo® luminescent cell viability assay kit (Promega, Cat #G7570) according to the manufacturer’s instructions. The luminescent signal was recorded as relative light units (RLU). For 3D organoid cultures, the cell viability was measured using CellTiter-Glo 3D® Cell Viability Assay (Promega, Cat #G9681) according to the manufacturer’s protocol. The relative cell viability treated with the vehicle was normalised as 1. To explore the effects of AICAR treatment on lung cancer cell lines, we performed a cell viability assay using a panel of lung cancer cell lines based on the status of EGFR mutations (Table S1). […] To understand whether AICAR’s effects are dependent upon EGFR mutations, we tested drug response in another panel of lung cancer cells with wild-type EGFR, including H358, H23, H441, A549, and H69 (Fig. 1b). […] To examine if there was any toxicity in stromal cells, we measured AICAR treatment response in a panel of primary lung stromal cell lines, including CCD-13Lu (fibroblasts), HULEC-5A (endothelial cells), and NR8383 (macrophages). […] The cell viability was measured three days after treatment. […] The cell viability was measured three days after treatment. […] The cell viability was measured three days after treatment. […] N = 3 replicates. d Quantification of EC50 in EGFR mutant, wild-type, and non-malignant stromal lung cells. […] After treatment, the apoptotic cells were quantified by flow cytometry analysis of cells stained with Annexin-V-APC and 7AAD. […] After treatment, the apoptotic cells were quantified by flow cytometry analysis of cells stained with Annexin-V-APC and 7AAD. N = 4 replicates. i, j Western blotting and relative quantification for expression levels of γ-H2AX (S139), H2AX, p-p53 (S33), p53, and […]

Another data set can be described thus: in vitro. The arrangement: species or system panel of lung tumour and stromal cell lines; CellTiter-Glo luminescent cell viability, 2D monolayer, 3000 cells per well in 96-well plate, vehicle-normalised. The note with it: panel of lung tumour and stromal cell lines, EC50 (mM), viability, given as EC50. How it is done:
as §2

For a further data set, the system named is HULEC-5A. Nature of the data set: in vitro. Conditions: viability, 72 h; given as EC50; inhibitor. On the set-up: species or system panel of lung tumour and stromal cell lines; CellTiter-Glo luminescent cell viability, 2D monolayer, 3000 cells per well in 96-well plate, vehicle-normalised. How it is done:
as §2

Take `NC(=O)c1ncn([C@@H]2O[C@H](CO)[C@@H](O)[C@H]2O)c1N` [AICAR]: the thermal stability entry at MUC1-CT was “AICAR incubation in H1975 cells significantly increased protein stability in MUC1-CT than vehicle-treated groups”. The EC50 in the data set on PC9 amounted to 300 µM; with H358 it was 1280 µM; with H3255 it was 320 µM; in the data set on H1975, 298 µM; in the data set with H1650 it was 420 µM; in the data set with H23 it was 1610 µM. Also, the EC50 is 1600 µM in the data set with A549; 410 µM in the data set on PC9-ER; 640 µM in the data set with H441; 880 µM in the data set with HCC827; 1440 µM with H69. The CC50 with NR8383 amounted to 1110 µM; in the data set with HULEC-5A it was 1450 µM. The CC50 at 72 h in the data set “in vitro” turned out to be 1.03 mM.
